Experimental data published in PMC2361514 (British Journal of Cancer, 2005).
Where two headings read alike, the source gives them in different places. Marks after values point to notes of the source that are not given here.

How the values were obtained:
[1] = test system: cancer patients; conditions: cited from earlier work; for MTD: ref Adjei et al, 2003b
[2] = dFdCTP in white blood cells with or without tipifarnib; format: in vivo, human; conditions: mononuclear blood cell, adjusted to 750 mg m^−2 gemcitabine
[3] = Plasma pharmacokinetics of gemcitabine and dFdU (HPLC) with or without tipifarnib; conditions: for AUC(0-t) / Cmax: 750 mg
Description: (§1) In cycle 2, tipifarnib pharmacokinetics was then determined on day 2. For gemcitabine, 2 ml blood samples were taken at 0, 15, 30, 35, 45, 60, 90 min and at 2, 2.5, 24, 32 and 48 h after the start of the 30 min infusion during cycle 1 and at 0, 15, 30, 35, 45, 60, 90 min during cycle 2. Both gemcitabine and its metabolite 2′, 2′ -difluoro-2′-deoxy-uridine (dFdU) were measured in plasma. Of each blood sample, 1 ml was added to 10 μl of tetrahydrouridine (10 mg ml^−1), after which it was centrifuged for 5 min at 4°C and 1500 g. Subsequently, the plasma layer was stored at −20°C until analysis. Additionally, 15 ml blood samples were taken at 0, 1.5, 4 and 24 h after the start of the gemcitabine infusion for the determination of the triphosphate metabolite of gemcitabine (dFdCTP) in WBC ([Sparidans et al, 2002]). Isolation of WBC was performed using a Ficoll density gradient (Pharmacia, Sweden) as described previously ([Heinemann et al, 1998]). All gemcitabine levels were measured using a validated high-performance liquid chromatography (HPLC) method, analogous to the method of [Freeman et al (1995)]. […] Blood samples were immediately centrifuged for 5 min at 4°C and 1500 g. Unbound platinum was obtained by ultrafiltration using the MPS-1 system equipped with 3 kDa YMT membranes (Amicon Division, Danvers, MA, USA). The resulting plasma ultrafiltrate and total plasma were immediately stored at −20°C until analysis by atomic absorption spectrometry (AAS) ([Van Warmerdam et al, 1995]). […] For tipifarnib, 5 ml blood samples were drawn at 0, 1, 2, 3, 5, 8 and 12 h after the morning dose. Immediately after collection, the blood samples were centrifuged for 5 min at 4°C at 1500 g. Separated plasma was stored at −20°C for subsequent drug analysis by a validated HPLC method with UV detection ([Zujewski et al, 2000]).
(§2) The following pharmacokinetic parameters were determined using noncompartmental analysis with WinNonLin software (version 4.1, Pharsight Corporation, Mountain View, CA, USA): the maximum plasma concentration (Cmax), time to maximum plasma concentration (tmax), the elimination half-life (t1/2), the area under the plasma concentration–time curve from 0 to 48 h (AUC0–48) of gemcitabine and dFdU and the AUC0–23 for total and unbound (free) platinum. […] In addition, the AUC0–24 of dFdCTP and the AUA0–23 (area under the adduct curve) ([Schellens et al, 1996]) of Pt-DNA adducts were calculated in WBC. For tipifarnib, Cmax, tmax and AUC0-12 were determined.
(§3) The primary pharmacokinetic parameters of interest for the statistical analyses were Cmax and AUC. Only data from patients who completed the pharmacokinetic blood sampling during the first and second cycles and had no dose reduction were included in the analyses. […] A significance level of 0.05 was used for all analyses. The statistical analyses were performed using the SAS statistical software program (version 6.12; SAS Institute, Inc., Cary, NC, USA).

[4] = test system: plasma proteins; conditions: cited from earlier work
[5] = test system: patients with advanced solid tumours; assay: Phase I trial: treatment emergent grade 3 or 4 haematological and nonhaematological toxicities (NCI-CTC v2.0), all cycles; conditions: human, in vivo
Description: Tipifarnib was supplied by Johnson & Johnson Pharmaceutical Research and Development as 100 mg tablets. […] Tipifarnib was administered orally twice daily, with intervals of 12 h. Tipifarnib was given on days 1–7 of each 21-day cycle. […] To minimise nephrotoxicity, a pre-and posthydration schedule was implemented on day 1. […] At least three patients were treated at each dose level. If DLT occurred in a patient during cycle 1, three additional patients were enrolled in that cohort. MTD was defined at which 2 or more out of 6 patients (2⩾6) experienced DLT. […] These toxicities were only considered DLT if they occurred during the first cycle of treatment. In the case of grade 3–4 haematological toxicities, the dose of gemcitabine was adjusted in the next cycle based on nadir blood cell counts. Dose adjustments were relative to the starting dose of gemcitabine received in the previous cycle of therapy. If the nadir granulocyte count was >500 μl^−1 and the nadir platelet count >50 000 μl^−1, 100% of the planned gemcitabine dose was administered. […] The administration of tipifarnib was discontinued when haematological DLT occurred. After recovery to at least grade 1, tipifarnib was reinstituted at the same dose level in conjunction with a dose modification of gemcitabine. If a patient continued to experience haematological DLT after one dose modification of gemcitabine, the dose of tipifarnib was decreased with 100 mg b.i.d. If at any time the dose of tipifarnib was to be reduced to <100 mg b.i.d. or if retreatment needed to be delayed >2 weeks after the scheduled restarting of a cycle, the patient went off-study. […] If grade 4 nonhaematological toxicities occurred, patients went off-study. No dose adjustments were made for transaminase elevation unless associated with clinical signs or symptoms. […] If at any time the dose of tipifarnib was to be reduced to <100 mg b.i.d. or if retreatment needed to be delayed >2 weeks after the scheduled restarting of a cycle, the patient went off-study.
Complete patient history, physical examination, haematology, chemistry, urinalysis and electrocardiogram were performed at baseline and before each cycle of treatment. Physical examination, haematology and chemistry were also evaluated on days 8 and 15 of each cycle. Audiometry was performed at baseline and was repeated if clinically indicated. Indicator lesions were measured before start of treatment and every two cycles, as a basis for the assessment of activity of the treatment. All toxicities observed were graded according to the Common Toxicity Criteria ([NCI-CTC, Version 2.0, 1998]).

[6] = test system: patients with advanced solid tumours; assay: Phase I trial: dose-limiting toxicities in cycle 1 and maximum tolerated dose; format: in vivo, human
Description: Tipifarnib was supplied by Johnson & Johnson Pharmaceutical Research and Development as 100 mg tablets. […] Tipifarnib was administered orally twice daily, with intervals of 12 h. Tipifarnib was given on days 1–7 of each 21-day cycle. […] To minimise nephrotoxicity, a pre-and posthydration schedule was implemented on day 1. […] At least three patients were treated at each dose level. If DLT occurred in a patient during cycle 1, three additional patients were enrolled in that cohort. MTD was defined at which 2 or more out of 6 patients (2⩾6) experienced DLT. […] These toxicities were only considered DLT if they occurred during the first cycle of treatment. In the case of grade 3–4 haematological toxicities, the dose of gemcitabine was adjusted in the next cycle based on nadir blood cell counts. Dose adjustments were relative to the starting dose of gemcitabine received in the previous cycle of therapy. If the nadir granulocyte count was >500 μl^−1 and the nadir platelet count >50 000 μl^−1, 100% of the planned gemcitabine dose was administered. […] The administration of tipifarnib was discontinued when haematological DLT occurred. After recovery to at least grade 1, tipifarnib was reinstituted at the same dose level in conjunction with a dose modification of gemcitabine. […]

[7] = Plasma pharmacokinetics of tipifarnib (HPLC-UV) as monotherapy or with gemcitabine/cisplatin; format: in vivo, human; conditions: single 200 mg oral dose
Description: as §1, §2, §3

[8] = cited from earlier work
[9] = combination with tipifarnib given for 14 days

## N.N.[Cl][Pt][Cl] [cisplatin]
[1]; [9]
  MTD: 75 mg m^−2

## Nc1ccn([C@@H]2O[C@H](COP(=O)(O)OP(=O)(O)OP(=O)(O)O)[C@@H](O)C2(F)F)c(=O)n1 [dFdCTP]
[2]; Gem/cis without tipifarnib
  AUC0–24, mean (s.d.): 18.3 (40.9) ^i h nanomol mg protein^−1
[2]; Gem/cis+tipifarnib 100–300 mg
  AUC0–24, mean (s.d.): 14.7 (22.9) ^j h nanomol mg protein^−1
[3]; cycle 1 (with tipifarnib) vs cycle 2 (without tipifarnib), Cmax and AUC, ANOVA
  Pharmacokinetic (drug–drug) interaction: no drug–drug interaction

## O=c1ccn([C@@H]2O[C@H](CO)[C@@H](O)C2(F)F)c(=O)[nH]1 [dFdU, 2′, 2′ -difluoro-2′-deoxy-uridine]
[3]; human, in vivo
  AUC(0-t): 237000 ng·h/mL
  Cmax: 25600 ng/mL
[3]; in vivo
  Pharmacokinetic (drug–drug) interaction: significant difference

## Nc1ccn([C@@H]2O[C@H](CO)[C@@H](O)C2(F)F)c(=O)n1 [gemcitabine]
[3]; human, in vivo
  AUC(0-t): 6710 ng·h/mL
  Cmax: 12500 ng/mL
[3]; human, in vivo, iv
  Median tmax: 0.50 h
[3]; in vivo
  Pharmacokinetic (drug–drug) interaction: no drug–drug interaction
[4]; ref Shipley et al, 1992
  Binding to plasma proteins: negligible
[5]
  Patients with a dose reduction owing to haematological toxicities: 16%
  Patients with a dose reduction owing to nonhaematological toxicities: 13%
[1]; [9]
  MTD: 1000 mg m^−2
[6]; i.v., in the combination of tipifarnib, gemcitabine (days 1 and 8) and cisplatin (day 1), 21-day cycle (dose level 3)
  Maximum tolerated dose (MTD): 1000 mg m^−2

## Cn1cncc1[C@@](N)(c1ccc(Cl)cc1)c1ccc2c(c1)c(-c1cccc(Cl)c1)cc(=O)n2C [tipifarnib]
[7]; human, tipifarnib as monotherapy (cycle 2 day 2), n=20, read-out: AUC0-12, mean (s.d.)
  AUC(0-t): 2630 ng·h/mL
[7]; human, tipifarnib as monotherapy (cycle 2 day 2), n=20, read-out: Cmax, mean (s.d.)
  Cmax: 499 ng/mL
[7]; tipifarnib as monotherapy (cycle 2 day 2), n=20
  Median tmax: 3.0 h
[7]; with gemcitabine 750–1000 mg m^−2 and cisplatin 75–100 mg m^−2 (cycle 1 day 1), n=22
  AUC0-12, mean (s.d.): 2971 (2089) ^c h ng ml^−1
[7]; with gemcitabine 750–1000 mg m^−2 and cisplatin 75–100 mg m^−2 (cycle 1 day 1), n=23
  Median tmax: 2.1 h
[4]; ref Janssen Research Foundation, 2003
  Bound to plasma proteins: 99%
[8]; tipifarnib combined with cisplatin, ref Skrzat et al, 1999
  Preclinical interaction of the combination: additive
[8]; tipifarnib combined with gemcitabine, ref Janssen Research Foundation, 2003
  Preclinical interaction of the combination: synergy
[5]
  Patients with a dose reduction owing to haematological toxicities: 10%
  Patients with a dose reduction owing to nonhaematological toxicities: 3%
[1]; continuous tipifarnib with gemcitabine 1000 mg m^−2 on days 1, 8 and 15 every 4 weeks, ref Patnaik et al, 2003
  Recommended dose: 200 mg b.i.d.
[1]; monotherapy, 7 consecutive days, cancer patients, ref Zujewski et al, 2000
  Dose up to which the regimen was safe: at least 300 mg b.i.d.
[1]; tipifarnib for 14 days with gemcitabine days 1 and 8 and cisplatin day 1
  MTD: 300 mg b.i.d.
[6]; oral, days 1–7 of each 21-day cycle, in combination with gemcitabine and cisplatin (dose level 3)
  Maximum tolerated dose (MTD): 200 mg b.i.d.
